This is an account of results in PubChem BioAssay (NCI).

Test systems include PC-3 prostate; SNB-75 CNS; SF-268 CNS; MDA-MB-231 breast; 786-0 renal; OVCAR-8 ovarian; SW-620 colon; BT-549 breast; HOP-62 NSCLC; A498 renal; M14 melanoma; CAKI-1 renal; OVCAR-4 ovarian; UACC-257 melanoma; COLO 205 colon; ACHN renal; SR leukemia; MDA-N.
Common to all, as to assay: NCI anticancer screen, dose series, 48 h

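1) Cells in 96-well plates. 2) Compound, 48 h, 5 concentrations. 3) Linear interpolation between surrounding doses. 4) Unreached endpoint = highest concentration. TGI: total growth inhibition.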

`CC(Oc1ccc(Cl)cc1Cl)C(=O)NN1C(=O)CSC1c1ccc(Cl)cc1` (stereo not given): the TGI with PC-3 prostate is greater than 100 µM; in the test on SNB-75 CNS it was 72.7 µM; in the test with SF-268 CNS it was greater than 100 µM; in the test on MDA-MB-231 breast, 97.4 µM; in the test with 786-0 renal it was greater than 100 µM; with OVCAR-8 ovarian, greater than 100 µM. In addition, the TGI in the test with SW-620 colon was greater than 100 µM; in the test with BT-549 breast, greater than 100 µM; in the test with HOP-62 NSCLC, greater than 100 µM; in the test with A498 renal, 80 µM; in the test with M14 melanoma, greater than 100 µM; with CAKI-1 renal, 34.2 µM. Besides, the TGI with OVCAR-4 ovarian was greater than 100 µM; in the test on UACC-257 melanoma it was greater than 100 µM; in the test on COLO 205 colon, greater than 100 µM; in the test on ACHN renal, greater than 100 µM; with SR leukemia it was 41.3 µM.

In the case of `O=S1c2ccc(Cl)cc2CC(SSC2Cc3cc(Cl)ccc3S(=O)c3ccccc32)c2ccccc21` (stereo not given), the TGI in the test with SNB-75 CNS, in the test with SF-268 CNS, in the test with 786-0 renal, in the test with OVCAR-8 ovarian, in the test on SW-620 colon and with HOP-62 NSCLC was greater than 100 µM in each case. For the same compound, the TGI with M14 melanoma, with CAKI-1 renal, with OVCAR-4 ovarian, with UACC-257 melanoma, in the test on COLO 205 colon and in the test on ACHN renal was greater than 100 µM throughout.

Consider `O=C(O)CCSc1nnc(COc2ccc(Cl)cc2)n1-c1ccccc1`, for which the TGI with PC-3 prostate, with SNB-75 CNS, in the test on SF-268 CNS, in the test with MDA-MB-231 breast, in the test with 786-0 renal and with MDA-N was greater than 100 µM throughout. Further, the TGI in the test on OVCAR-8 ovarian, in the test with SW-620 colon, with HOP-62 NSCLC, in the test on A498 renal, in the test on M14 melanoma and with CAKI-1 renal was greater than 100 µM throughout. Moreover, the TGI with OVCAR-4 ovarian, in the test on UACC-257 melanoma, in the test with COLO 205 colon and in the test on ACHN renal was greater than 100 µM each time.

As to `CC1=[N+]([O-])C(C)(C)N(O)C1(C)C`, the TGI in the test on PC-3 prostate, in the test on SNB-75 CNS, in the test with SF-268 CNS, in the test on MDA-MB-231 breast, with 786-0 renal and in the test with MDA-N was greater than 100 µM each time. Further, the TGI in the test with OVCAR-8 ovarian, with SW-620 colon, in the test with HOP-62 NSCLC, in the test with A498 renal, with M14 melanoma and with OVCAR-4 ovarian was greater than 100 µM each time. For the same compound, the TGI with COLO 205 colon, in the test on ACHN renal and with SR leukemia was greater than 100 µM in each case.

Regarding `CN(CCO)c1nc2c(c(=O)[nH]1)CNCC2`, the TGI in the test on SNB-75 CNS, with SF-268 CNS, in the test with 786-0 renal, in the test with OVCAR-8 ovarian, in the test on SW-620 colon and with HOP-62 NSCLC was greater than 100 µM in each case. For the same compound, the TGI with M14 melanoma, in the test on CAKI-1 renal, with OVCAR-4 ovarian, with UACC-257 melanoma, in the test on COLO 205 colon and in the test with ACHN renal was greater than 100 µM each time. In the test with SR leukemia, this compound came in with a TGI greater than 100 µM.

Consider `CCOC(=O)C1C(c2ccc([N+](=O)[O-])cc2)NC(c2ccc([N+](=O)[O-])cc2)C(C(=O)OC)S1(=O)=O` (stereo not given), for which the TGI in the test with SNB-75 CNS, in the test with SF-268 CNS, in the test with 786-0 renal, in the test with OVCAR-8 ovarian, with SW-620 colon and in the test with HOP-62 NSCLC was greater than 100 µM each time. Also, the TGI in the test with M14 melanoma, in the test with CAKI-1 renal, in the test on OVCAR-4 ovarian, in the test with UACC-257 melanoma, with COLO 205 colon and in the test on ACHN renal was greater than 100 µM throughout. This compound also gave a TGI in the test with SR leukemia greater than 100 µM.

Take `CNC(=O)CN(CC(N)=O)C(=O)NC`: the TGI in the test with SNB-75 CNS, in the test with SF-268 CNS, in the test on 786-0 renal, in the test with OVCAR-8 ovarian, with SW-620 colon and in the test on HOP-62 NSCLC was greater than 100 µM in each case. For the same compound, the TGI in the test on A498 renal, with M14 melanoma, in the test with CAKI-1 renal, with OVCAR-4 ovarian, in the test with COLO 205 colon and with ACHN renal was greater than 100 µM each time. Further, the TGI with SR leukemia was greater than 100 µM.

On to `O=c1[nH]n(Cc2ccccc2CCl)c2ccc([N+](=O)[O-])cc12`, for which the TGI in the test on PC-3 prostate, in the test with SF-268 CNS, in the test on MDA-MB-231 breast, with 786-0 renal, in the test with MDA-N and in the test on OVCAR-8 ovarian was greater than 100 µM each time. In addition, the TGI with SW-620 colon was greater than 100 µM; in the test on HOP-62 NSCLC it was greater than 100 µM; in the test on A498 renal, greater than 100 µM; in the test with M14 melanoma, greater than 100 µM; in the test with CAKI-1 renal, 63.3 µM; with OVCAR-4 ovarian, greater than 100 µM. For the same compound, the TGI in the test with UACC-257 melanoma was greater than 100 µM; in the test on COLO 205 colon it was 62.5 µM; in the test on ACHN renal it was greater than 100 µM; in the test on SR leukemia, greater than 100 µM.

Turning to `C/C(=C\COP(=O)(O)OP(=O)(O)O)CC/C=C(\C)CNc1ccc([N+](=O)[O-])cc1`, the TGI in the test with PC-3 prostate, in the test with SNB-75 CNS, with SF-268 CNS, in the test on MDA-MB-231 breast, in the test on 786-0 renal and in the test with OVCAR-8 ovarian was greater than 100 µM each time. Besides, the TGI in the test on SW-620 colon, in the test with HOP-62 NSCLC, in the test on M14 melanoma, in the test on CAKI-1 renal, in the test with OVCAR-4 ovarian and in the test on UACC-257 melanoma was greater than 100 µM each time. In addition, the TGI in the test on COLO 205 colon, in the test with ACHN renal and in the test with SR leukemia was greater than 100 µM in each case.
